Where two headings read alike, the source gives them in different places. *1 amine or outer side, *2 acyl side, *3 side chain or, on linkers, in order; H or OH if unused. Where a SMILES comes first, the peptide text is derived from it. Side-chain parts run from the residue outwards. [ ]: non-standard residue; d: D form. The star is where a group is joined. γGlu = O=C(O)[C@H](CCC(=O)[*:2])N[*:1]; Stearoyl = CCCCCCCCCCCCCCCCCC(=O)*; Palmitoyl = CCCCCCCCCCCCCCCC(=O)*; Aib = CC(C)(N)C(=O)O
Tests used:
[1] = biological target: T1, human glucagon receptor (hGLUC R) (Homo sapiens, UniProt P47871); experiment: cAMP response of HEK-293 cells stably expressing human glucagon receptor (HTRF); assay type: cell-based; details: Table 7; cAMP formation
T1 construct: expressed in transfected cells
In short: (§1)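 HTRF read-out of cellular cAMP after 30 min compound exposure at room temperature. Accutase-detached cells were suspended at 400000 cells/ml in HBSS buffer containing 20 mM HEPES, 0.1% BSA and 2 mM IBMX phosphodiesterase inhibitor.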

[2] = biological target: T2, human GLP-1 receptor (hGLP-1 R) (Homo sapiens, UniProt P43220); experiment: cAMP response of HEK-293 cells stably expressing human GLP-1 receptor (HTRF); assay type: cell-based; details: Table 7; cAMP formation
T2 construct: expressed in transfected cells
In short: as §1

[3] = Solubility testing in buffer (HPLC-UV of supernatant); assay type: physicochemical
[4] = biological target: T3, human GIP receptor (hGIP R) (Homo sapiens, UniProt P48546); experiment: cAMP response of HEK-293 cells stably expressing human GIP receptor (HTRF); assay type: cell-based; details: Table 7; cAMP formation
T3 construct: expressed in transfected cells
T3 sequence (P48546 22-466): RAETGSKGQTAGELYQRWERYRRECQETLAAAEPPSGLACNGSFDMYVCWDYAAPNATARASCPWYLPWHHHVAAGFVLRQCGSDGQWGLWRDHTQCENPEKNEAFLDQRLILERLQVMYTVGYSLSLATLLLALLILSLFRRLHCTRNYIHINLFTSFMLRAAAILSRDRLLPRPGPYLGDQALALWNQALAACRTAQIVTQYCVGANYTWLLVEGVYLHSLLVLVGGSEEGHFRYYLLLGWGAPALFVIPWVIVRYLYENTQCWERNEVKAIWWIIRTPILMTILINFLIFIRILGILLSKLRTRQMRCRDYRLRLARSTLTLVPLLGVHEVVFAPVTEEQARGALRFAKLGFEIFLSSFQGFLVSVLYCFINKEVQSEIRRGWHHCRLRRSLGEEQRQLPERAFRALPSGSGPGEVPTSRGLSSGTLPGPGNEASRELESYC
In short: as §1

T2 sequence (P43220 24-463): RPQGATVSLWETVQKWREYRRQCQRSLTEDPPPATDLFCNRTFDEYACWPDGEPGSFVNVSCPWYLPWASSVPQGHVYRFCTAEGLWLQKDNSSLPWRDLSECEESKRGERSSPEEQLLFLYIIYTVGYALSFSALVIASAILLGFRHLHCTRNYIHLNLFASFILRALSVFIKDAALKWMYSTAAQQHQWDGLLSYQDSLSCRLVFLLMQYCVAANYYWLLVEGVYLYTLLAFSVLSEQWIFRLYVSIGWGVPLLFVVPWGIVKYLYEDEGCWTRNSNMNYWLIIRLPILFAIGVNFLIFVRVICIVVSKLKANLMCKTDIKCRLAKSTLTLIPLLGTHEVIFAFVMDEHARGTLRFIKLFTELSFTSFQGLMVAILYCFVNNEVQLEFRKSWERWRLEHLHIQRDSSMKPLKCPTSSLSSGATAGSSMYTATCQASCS
T1 sequence (P47871 26-477): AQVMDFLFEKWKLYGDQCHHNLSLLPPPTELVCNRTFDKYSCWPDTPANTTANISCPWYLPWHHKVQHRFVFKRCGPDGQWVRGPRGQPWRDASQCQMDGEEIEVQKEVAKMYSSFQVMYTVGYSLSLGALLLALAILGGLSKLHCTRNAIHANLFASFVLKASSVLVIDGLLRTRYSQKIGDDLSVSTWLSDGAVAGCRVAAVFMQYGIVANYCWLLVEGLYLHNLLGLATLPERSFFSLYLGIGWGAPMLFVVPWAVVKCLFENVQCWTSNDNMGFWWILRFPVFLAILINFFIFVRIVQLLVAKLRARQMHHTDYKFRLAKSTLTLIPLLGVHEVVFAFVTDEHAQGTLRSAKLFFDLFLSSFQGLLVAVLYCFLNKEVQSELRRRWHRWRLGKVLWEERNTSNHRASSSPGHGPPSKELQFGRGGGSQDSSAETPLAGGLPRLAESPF

With `CCCCCCCCCCCCCCCC(=O)N[C@@H](CCC(=O)NCCCC[C@H](NC(=O)[C@H](CCC(N)=O)NC(=O)[C@H](CCCCN)NC(=O)[C@H](CO)NC(=O)[C@H](CC(C)C)NC(=O)[C@H](CC(=O)O)NC(=O)[C@H](CO)NC(=O)[C@@H](NC(=O)[C@H](Cc1ccccc1)NC(=O)[C@@H](NC(=O)CNC(=O)[C@H](CCC(=O)O)NC(=O)C(C)(C)NC(=O)[C@@H](N)Cc1ccc(O)cc1)[C@@H](C)O)[C@@H](C)O)C(=O)N[C@@H](CCC(=O)O)C(=O)N[C@@H](CCCCN)C(=O)N[C@@H](CCC(=O)O)C(=O)N[C@@H](C)C(=O)N[C@@H](C)C(=O)NC(C)(C)C(=O)N[C@@H](CCC(=O)O)C(=O)N[C@@H](Cc1ccccc1)C(=O)N[C@H](C(=O)N[C@@H](CCC(=O)O)C(=O)N[C@@H](Cc1c[nH]c2ccccc12)C(=O)N[C@@H](CC(C)C)C(=O)N[C@@H](CCCCN)C(=O)N[C@@H](C)C(=O)NCC(=O)NCC(=O)N1CCC[C@H]1C(=O)N[C@@H](CO)C(=O)N[C@@H](CO)C(=O)NCC(=O)N[C@@H](C)C(=O)N1CCC[C@H]1C(=O)N1CCC[C@H]1C(=O)N1CCC[C@H]1C(=O)N[C@@H](CO)C(N)=O)[C@@H](C)CC)C(=O)O` [SEQ ID NO: 17, Y-Aib-E-G-T-F-T-S-D-L-S-K-Q-K(yE-x53)-E-K-E-A-A-Aib-E-F-I-E-W-L-K-A-G-G-P-S-S-G-A-P-P-P-S-NH2] (H-Y[Aib]EGTFTSDLSKQK([γGlu-Palmitoyl])EKEAA[Aib]EFIEWLKAGGPSSGAPPPS-NH2) the EC50 [1] was 21 nM, the EC50 [2] was 5.2 pM and the solubility at 2 h ([3]; pH 4.5, target concentration 1.0 mg/mL, read-out: Solubility (pH 4.5)) was > 1000 µg/mL. For the same compound, the solubility at 2 h ([3]; pH 7.4, target concentration 1.0 mg/mL, read-out: Solubility (pH 7.4)) was > 1000 µg/mL and the EC50 [4] was 0.0083 nM.

`CCCCCCCCCCCCCCCCCC(=O)N[C@@H](CCC(=O)NCCCC[C@H](NC(=O)[C@H](CCC(N)=O)NC(=O)[C@H](CCCCN)NC(=O)[C@H](CO)NC(=O)[C@H](CC(C)C)NC(=O)[C@H](CC(=O)O)NC(=O)[C@H](CO)NC(=O)[C@@H](NC(=O)[C@H](Cc1ccccc1)NC(=O)[C@@H](NC(=O)CNC(=O)[C@H](CCC(N)=O)NC(=O)C(C)(C)NC(=O)[C@@H](N)Cc1ccc(O)cc1)[C@@H](C)O)[C@@H](C)O)C(=O)N[C@@H](CC(=O)O)C(=O)N[C@@H](CCC(=O)O)C(=O)N[C@@H](CCC(=O)O)C(=O)N[C@@H](C)C(=O)N[C@@H](C)C(=O)N[C@@H](CCCNC(=N)N)C(=O)N[C@@H](CC(C)C)C(=O)N[C@@H](Cc1ccccc1)C(=O)N[C@H](C(=O)N[C@@H](CCC(=O)O)C(=O)N[C@@H](Cc1c[nH]c2ccccc12)C(=O)N[C@@H](CC(C)C)C(=O)N[C@@H](CCCCN)C(=O)N[C@@H](C)C(=O)NCC(=O)NCC(=O)N1CCC[C@H]1C(=O)N[C@@H](CO)C(=O)N[C@@H](CO)C(=O)NCC(=O)N[C@@H](C)C(=O)N1CCC[C@H]1C(=O)N1CCC[C@H]1C(=O)N1CCC[C@H]1C(=O)N[C@@H](CO)C(N)=O)[C@@H](C)CC)C(=O)O` [SEQ ID NO: 60, Y-Aib-Q-G-T-F-T-S-D-L-S-K-Q-K(yE-x70)-DEEAARLFIEWLKAGGPSSGAPPPS-NH2] (H-Y[Aib]QGTFTSDLSKQK([γGlu-Stearoyl])DEEAARLFIEWLKAGGPSSGAPPPS-NH2) showed an EC50 [1] of 0.0091 nM, an EC50 [2] of 5.3 pM and an EC50 [4] of 0.0168 nM.

`CCCCCCCCCCCCCCCC(=O)N[C@@H](CCC(=O)NCCCC[C@H](NC(=O)[C@H](CCC(N)=O)NC(=O)[C@H](CCCCN)NC(=O)[C@H](CO)NC(=O)[C@H](CC(C)C)NC(=O)[C@H](CC(=O)O)NC(=O)[C@H](CO)NC(=O)[C@@H](NC(=O)[C@H](Cc1ccccc1)NC(=O)[C@@H](NC(=O)CNC(=O)[C@H](CCC(N)=O)NC(=O)C(C)(C)NC(=O)[C@@H](N)Cc1ccc(O)cc1)[C@@H](C)O)[C@@H](C)O)C(=O)N[C@@H](CC(=O)O)C(=O)N[C@@H](CO)C(=O)N[C@@H](CCCCN)C(=O)N[C@@H](C)C(=O)N[C@@H](C)C(=O)N[C@@H](CCC(N)=O)C(=O)N[C@@H](CC(=O)O)C(=O)N[C@@H](Cc1ccccc1)C(=O)N[C@H](C(=O)N[C@@H](CCC(=O)O)C(=O)N[C@@H](Cc1c[nH]c2ccccc12)C(=O)N[C@@H](CC(C)C)C(=O)N[C@@H](CCCCN)C(=O)N[C@@H](C)C(=O)NCC(=O)NCC(=O)N1CCC[C@H]1C(=O)N[C@@H](CO)C(=O)N[C@@H](CO)C(=O)NCC(=O)N[C@@H](C)C(=O)N1CCC[C@H]1C(=O)N1CCC[C@H]1C(=O)N1CCC[C@H]1C(=O)N[C@@H](CO)C(N)=O)[C@@H](C)CC)C(=O)O` [SEQ ID NO: 61, Y-Aib-Q-G-T-F-T-S-D-L-S-K-Q-K(yE-x53)-DSKAAQDFIEWLKAGGPSSGAPPPS-NH2] (H-Y[Aib]QGTFTSDLSKQK([γGlu-Palmitoyl])DSKAAQDFIEWLKAGGPSSGAPPPS-NH2) showed an EC50 [1] of 0.0061 nM, an EC50 [2] of 2.4 pM and an EC50 [4] of 0.0214 nM.

With `CCCCCCCCCCCCCCCCCC(=O)N[C@@H](CCC(=O)NCCCC[C@H](NC(=O)[C@H](CCC(N)=O)NC(=O)[C@@H](NC(=O)[C@H](CO)NC(=O)[C@H](CC(C)C)NC(=O)[C@H](CC(=O)O)NC(=O)[C@H](CO)NC(=O)[C@@H](NC(=O)[C@H](Cc1ccccc1)NC(=O)[C@@H](NC(=O)CNC(=O)[C@H](CCC(=O)O)NC(=O)C(C)(C)NC(=O)[C@@H](N)Cc1ccc(O)cc1)[C@@H](C)O)[C@@H](C)O)[C@@H](C)CC)C(=O)N[C@@H](CCC(=O)O)C(=O)N[C@@H](CCC(=O)O)C(=O)N[C@@H](CCC(=O)O)C(=O)N[C@@H](C)C(=O)N[C@H](C(=O)N[C@@H](CCCCN)C(=O)N[C@@H](CC(C)C)C(=O)N[C@@H](Cc1ccccc1)C(=O)N[C@H](C(=O)N[C@@H](CCC(=O)O)C(=O)N[C@@H](Cc1c[nH]c2ccccc12)C(=O)N[C@@H](CC(C)C)C(=O)N[C@@H](CCCCN)C(=O)N[C@@H](C)C(=O)NCC(=O)NCC(=O)N1CCC[C@H]1C(=O)N[C@@H](CO)C(=O)N[C@@H](CO)C(=O)NCC(=O)N[C@@H](C)C(=O)N1CCC[C@H]1C(=O)N1CCC[C@H]1C(=O)N1CCC[C@H]1C(=O)N[C@@H](CO)C(N)=O)[C@@H](C)CC)C(C)C)C(=O)O` [SEQ ID NO: 62, Y-Aib-E-G-T-F-T-S-D-L-S-I-Q-K(yE-x70)-EEEAVKLFIEWLKAGGPSSGAPPPS-NH2] (H-Y[Aib]EGTFTSDLSIQK([γGlu-Stearoyl])EEEAVKLFIEWLKAGGPSSGAPPPS-NH2) the EC50 [1] was > 1000 nM, the EC50 [2] was 7.6 pM and the EC50 [4] was 0.0067 nM.

`CCCCCCCCCCCCCCCC(=O)N[C@@H](CCC(=O)NCCCC[C@H](NC(=O)[C@H](CCC(N)=O)NC(=O)[C@H](CCCCN)NC(=O)[C@H](CO)NC(=O)[C@H](CC(C)C)NC(=O)[C@H](CC(=O)O)NC(=O)[C@H](CO)NC(=O)[C@@H](NC(=O)[C@H](Cc1ccccc1)NC(=O)[C@@H](NC(=O)CNC(=O)[C@H](CCC(=O)O)NC(=O)C(C)(C)NC(=O)[C@@H](N)Cc1ccc(O)cc1)[C@@H](C)O)[C@@H](C)O)C(=O)N[C@@H](CC(=O)O)C(=O)N[C@@H](CCCCN)C(=O)N[C@@H](CCCNC(=N)N)C(=O)N[C@@H](C)C(=O)N[C@@H](C)C(=O)N[C@@H](CCC(N)=O)C(=O)N[C@@H](CC(=O)O)C(=O)N[C@@H](Cc1ccccc1)C(=O)N[C@H](C(=O)N[C@@H](CCC(=O)O)C(=O)N[C@@H](Cc1c[nH]c2ccccc12)C(=O)N[C@@H](CC(C)C)C(=O)N[C@@H](CCCCN)C(=O)N[C@@H](C)C(=O)NCC(=O)NCC(=O)N1CCC[C@H]1C(=O)N[C@@H](CO)C(=O)N[C@@H](CO)C(=O)NCC(=O)N[C@@H](C)C(=O)N1CCC[C@H]1C(=O)N1CCC[C@H]1C(=O)N1CCC[C@H]1C(=O)N[C@@H](CO)C(N)=O)[C@@H](C)CC)C(=O)O` [SEQ ID NO: 63, Y-Aib-E-G-T-F-T-S-D-L-S-K-Q-K(yE-x53)-DKRAAQDFIEWLKAGGPSSGAPPPS-NH2] (H-Y[Aib]EGTFTSDLSKQK([γGlu-Palmitoyl])DKRAAQDFIEWLKAGGPSSGAPPPS-NH2) gave an EC50 [1] of 1.67 nM, an EC50 [2] of 6 pM and an EC50 [4] of 0.0119 nM.

Work on `CCCCCCCCCCCCCCCC(=O)N[C@@H](CCC(=O)NCCCC[C@H](NC(=O)[C@H](CCC(N)=O)NC(=O)[C@H](CCCCN)NC(=O)[C@H](CO)NC(=O)[C@H](CC(C)C)NC(=O)[C@H](CC(=O)O)NC(=O)[C@H](CO)NC(=O)[C@@H](NC(=O)[C@H](Cc1ccccc1)NC(=O)[C@@H](NC(=O)CNC(=O)[C@H](CCC(N)=O)NC(=O)C(C)(C)NC(=O)[C@@H](N)Cc1ccc(O)cc1)[C@@H](C)O)[C@@H](C)O)C(=O)N[C@@H](CC(=O)O)C(=O)N[C@@H](CO)C(=O)N[C@@H](CCCNC(=N)N)C(=O)N[C@@H](C)C(=O)N[C@@H](C)C(=O)N[C@@H](CCC(N)=O)C(=O)N[C@@H](CC(=O)O)C(=O)N[C@@H](Cc1ccccc1)C(=O)N[C@H](C(=O)N[C@@H](CCC(=O)O)C(=O)N[C@@H](Cc1c[nH]c2ccccc12)C(=O)N[C@@H](CC(C)C)C(=O)N[C@@H](CCCCN)C(=O)N[C@@H](C)C(=O)NCC(=O)NCC(=O)N1CCC[C@H]1C(=O)N[C@@H](CO)C(=O)N[C@@H](CO)C(=O)NCC(=O)N[C@@H](C)C(=O)N1CCC[C@H]1C(=O)N1CCC[C@H]1C(=O)N1CCC[C@H]1C(=O)N[C@@H](CO)C(N)=O)[C@@H](C)CC)C(=O)O` [SEQ ID NO: 66, Y-Aib-Q-G-T-F-T-S-D-L-S-K-Q-K(yE-x53)-DSRAAQDFIEWLKAGGPSSGAPPPS-NH2] (H-Y[Aib]QGTFTSDLSKQK([γGlu-Palmitoyl])DSRAAQDFIEWLKAGGPSSGAPPPS-NH2) yielded an EC50 [1] of 0.0052 nM, an EC50 [2] of 3.6 pM and an EC50 [4] of 0.0826 nM.

Reference: US20140213513A1 (Sanofi, priority 2012, published 2014)
